Source: patent US9598441B2, “Therapeutic compounds and methods” (Wayne State University, priority 2011, dated 2017)

Experiments:
[1] = test system: cell cycle progression; experiment: Flow-cytometric cell cycle analysis (propidium iodide); assay type: cell-based
Description: FIGS. 5A-5D: CFM-4 suppresses cell growth in part by elevating CARP-1 and diminishing cyclin B1 levels. In panel A, cells were treated with indicated agents for noted times, labeled with propidium iodide, and sorted by flow cytometry. Histogram and table below represent cell numbers in various phases of cell cycle. In panel B, cells were treated with indicated dose of CFM-4 for noted times, in panel C, cells were either untreated (−) or treated (+) with CFM-4 for noted dose and time, while in panel D, cells were either treated with vehicle control (DMSO) or with indicated agents for noted dose and time. The cell lysates (50 μg/lane) in panels B-D were analyzed by WB for levels of CARP-1, Cyclin B1, Cdh1, APC-2, CDKIs p21^WAF1/CIP1, p27^KIP1 and actin proteins as in methods.
CARP-1 is required for CFM-4-dependent cell growth inhibition. Because APC/C E3 ubiquitin ligase functions to regulate cell cycle and CFM-4 binds with CARP-1 to inhibit its binding with APC-2, it was next determined whether the SMIs interfere with cell cycle progression. […] The APC/C^Cdc20 E3 ubiquitin ligase regulates turnover of the mitotic cyclin B1 and Cdc20 during the G2M phase and exit to mitosis while APC/C^Cdh1 E3 ligase targets Cdc20 as well as SCF ligase to accomplish exit from mitosis and transition to G0/G1 phases. Attenuation of SCF ligase by APC/C^Cdh1, in turn, results in elevated levels of CDKIs p21^WAF1/CIP1 and p27^KIP1. […] To investigate this possibility it was determined whether CFM-4 binding with CARP-1 modulated CARP-1 levels. […] Levels of both the p21^WAF1/CIP1 and p27^KIP1 CDKIs were elevated when cells were exposed to CFM-4 for 0.5-1.0 h time periods (FIG. 5B). This may likely be due to the initial response of the cells to stress following exposure to CFM-4. […] This loss of CDKI expression could be due to attenuation of APC/C^Cdh1 activity following modest reduction in the Cdh1 levels as well as inability of CARP-1 to bind with APC-2 over prolonged periods of treatments with CFM-4. […]

[2] = test system: apoptosis of HBC cells; experiment: ELISA-based DNA fragmentation apoptosis assay; assay type: cell-based, human
Description: For apoptosis ELISA assay, 4−5×10^2 cells were seeded in 96-well plates and treated essentially as indicated in the MTT assay above. Untreated as well as treated cells were lysed, and levels of mono and oligo-nucleosomal DNA fragments in the lysates were determined by measuring optical density of each sample at 405 nm and 495 nm wavelengths. […] For TUNEL labeling, the cells were treated with various agents, fixed, labeled and photographed essentially as detailed in immuno-localization protocols described before (Zhang, L., Levi, E., Majumder, P., Yu, Y., Aboukameel, A., Du, J., Xu, H., Mohammad, R. M., Hatfield, J. S., Wali, A., Adsay, V., Majumdar, A. P. N., and Rishi, A. K. (2007) Mol. Cancer. Ther. 6(5), 1661-1672). […] Cell lysates derived from vehicle DMSO (Control) or CFM-4-treated cells were added to the wells that had immobilized fluorogenic caspase-3, caspase-8, caspase-9, or caspase-2 substrates. The fluorescence released from the activated caspase-dependent cleavage of respective substrate was detected by a plate reader at the excitation and emission wavelengths of 380 nm and 460 nm, respectively.
CFM-4 suppresses cell growth in part by inducing apoptosis: In light of the data in FIG. 5A showing significant accumulation of CFM-4-treated cells in the sub G0 phase, and the fact that cells undergoing apoptosis often accumulate in the sub G0 fractions, it was next ascertained the extent of apoptosis stimulation by these agents by utilizing an ELISA-based DNA fragmentation assay. […] The intrinsic, mitochondria-mediated and the extrinsic, extracellular receptor-activated, apoptosis signaling pathways are transduced by activation of various caspases that promote eventual breakdown of cellular proteins, organelles and plasma membrane. […] It was next determined whether apoptosis stimulation by CFM-4 involved activation of caspases 8 or 9 or both. […] The activation of caspases in the presence of CFM-4 was further profiled by utilizing a fluorescence-based quantitative assay as detailed in methods. […]

[3] = test system: HBC, colon, prostate, pancreatic cancer, MPM and lymphoma cells; experiment: MTT cell viability assay, cancer cells; assay type: cell-based, human
Description: Logarithmically growing cells were either untreated or treated with different agents for various time periods. The cells were lysed to prepare protein extracts. IP was carried out by incubating approximately 1 mg of the protein lysate with appropriate antibodies, and the immunoprecipitates or cell lysates were then electrophoresed on 9-12% SDS-polyacrylamide gels, and transferred to nitrocellulose membranes. The membranes were subsequently probed with various antibodies to determine expression/presence of the corresponding proteins. The cell growth inhibition was assessed by using MTT assay. Briefly, MTT (3-[4,5-Dimethylthiazol-2-yl]-2,5diphenyltetrazolium bromide) was dissolved in sterile 1×PBS to prepare a stock solution of 5 mg/ml. The solution was subsequently filtered through 0.2 μm filter and stored at 2-8° C. 4−5×10^2 cells were seeded in 96-well plates. After 72 h incubation with or without different agents, MTT stock solution was added to each culture being assayed to equal one tenth the original culture volume, followed by incubation of cells at 37° C. for another 2 h. At the end of the incubation, the media was removed and cells were treated with 100-200 μl of DMSO to solubilize the dye. The assessment of the live cells was derived by measuring the absorbance of the converted dye at wavelength of 570 nm.
To test whether CFMs that interfere with CARP-1 binding with APC-2 modulate cell growth, HBC, colon, prostate, pancreatic cancer, MPM and lymphoma cells, as well as the immortalized, mammary epithelial MCF-10A cells were utilized. The cells were either treated with vehicle (DMSO) or various doses of the respective compound for a period of 72 h, and percent of live/viable cells for each compound was determined relative to the untreated controls as described in Methods.

## COc1cccc2c1C(=O)c1c(O)c3c(c(O)c1C2=O)C[C@@](O)(C(=O)CO)C[C@@H]3O[C@H]1C[C@H](N)[C@H](O)[C@H](C)O1 [ADR, adriamycin, reference compound]
[1]
  cell cycle effect (flow cytometry): induced G2M cell cycle arrest
[2]
  apoptosis level (DNA fragmentation ELISA): significantly elevated levels of apoptosis

## Cc1cc(Br)cc2c1NC(=O)/C2=C1\SC(=S)NC1=O [CFM-1, (Z)-5-(5-bromo-7-methyl-2-oxoindolin-3-ylidene)-2-thioxothiazolidin-4-one]
[3]; HBC cells, 72 h
  HBC cell growth / viability (MTT): suppressed viabilities
[3]; MPM cells, 72 h
  cell growth of MPM cells (MTT): elicited activity towards select MPM cells
[1]
  cell cycle effect (flow cytometry): induced G2M cell cycle arrest
[2]
  apoptosis level (DNA fragmentation ELISA): without significant increase in apoptosis

## O=C1N(Cc2ccccc2Cl)c2ccccc2C12NN=C(c1ccccc1)S2 (stereo not shown) [CFM-4, 1-(2-chlorobenzyl)-5′-phenyl-3′H-spiro[indoline-3,2′-[1,3,4]thiadiazol]-2-one]
[3]; HBC cells, 20 μM dose
  sensitivity of HBC cells compared with similar dose of CFM-1 and 5 (MTT): relative increased sensitivity
[3]; HBC cells, 72 h
  HBC cell growth / viability (MTT): suppressed viabilities
[1]
  cell cycle effect (flow cytometry): induced G2M cell cycle arrest
[2]
  apoptosis level (DNA fragmentation ELISA): significantly elevated levels of apoptosis
